Results published in patent publication US9988407B2, “Prodrugs of prostate specific membrane antigen (PSMA) inhibitor” (THE JOHNS HOPKINS UNIVERSITY, priority 2014, dated 2018).
Values joined by “and” are separate entries in the source; they are usually repeats but may differ in a detail not shown here. Equal entries are not always repeated.

What was measured:
[1] = Metabolic stability in human plasma; assay type: in vitro ADME; settings: 10 μM, 37° C.
Outline: (§1)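 Prodrugs at 10 μM were incubated in plasma or liver microsomes at 37° C, with triplicate samples taken at 0, 30 and 60 min and quenched in cold acetonitrile. Loss of prodrug was followed by LC/MS/MS in positive electrospray mode. Percent remaining came from the analyte-to-internal-standard peak-area ratio.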

[2] = In vivo pharmacokinetics in mice, peroral, bioanalysis method 1 (total prodrug exposure); settings: mice, oral dosing
Outline: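 Mice dosed orally; plasma sampled by cardiac puncture 0–4 h (n=3 per time) or at 30 min only. Total prodrug measured after methanol extraction and n-butanol/3N HCl derivatization by UPLC-MS/MS. Non-compartmental PK: observed Cmax/Tmax, AUC by log-linear trapezoidal rule, t1/2=0.693/ke.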

[3] = Metabolic stability in mouse plasma; assay type: in vitro ADME; settings: 10 μM, 37° C.
Outline: as §1

[4] = Metabolic stability in dog plasma; assay type: in vitro ADME; settings: 10 μM, 37° C.
Method: (§2) For metabolic stability, plasma (mouse, dog, monkey and human) and liver microsomes (mouse, dog, monkey and human) were used. For stability, prodrugs (10 μM) were spiked in each matrix and incubated in an orbital shaker at 37° C. At predetermined times (0, 30 and 60 min), 100 μL aliquots of the mixture in triplicate were removed and the reaction quenched by addition of three times the volume of ice cold acetonitrile spiked with the internal standard (losartan 5 μM). The samples were vortexed for 30 s and centrifuged 12000 g for 10 min. 50 μL supernatant diluted with 50 μL water was transferred to a 250 μL polypropylene vial sealed with a Teflon cap. Prodrug disappearance was monitored over time using a liquid chromatography and tandem mass spectrometry (LC/MS/MS) method as described below.
(§3) For LC/MS/MS, prodrugs were separated with Thermo Scientific Accela UPLC system coupled to Accela open autosampler on an Agilent C18 (100×2.1 mm id) UPLC column. The autosampler was temperature controlled and operating at 10° C. The mobile phase used for the chromatographic separation was composed of acetonitrile/water containing 0.1% formic acid and was run at a flow rate of 0.5 mL/minute for 4.5 minutes using gradient elution. The column effluent was monitored using TSQ Vantage triple-quadrupole mass spectrometric detector, equipped with an electrospray probe set in the positive ionization mode. Samples were introduced into the ionization source through a heated nebulized probe (350° C.).
(§4) For quantification of compound remaining, disappearance of prodrugs was measured from ratio of peak areas of analyte to IS. Percentage remaining was calculated in the following manner: […]

[5] = Metabolic stability in dog liver microsomes; assay type: in vitro ADME; settings: 10 μM, 37° C.
Method: as §2, §3, §4

[6] = In vitro metabolic stability screen in plasma and liver subcellular fractions (results in words); assay type: in vitro ADME; settings: 60 min incubation
Outline: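 Prodrugs at 10 μM were incubated at 37° C in plasma and liver microsomes from mouse, dog, monkey and human. Samples were taken at 0, 30 and 60 min and quenched in acetonitrile. Percent remaining was quantified by LC/MS/MS (positive ESI) as analyte/internal standard peak-area ratio.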

[7] = In vivo pharmacokinetics in beagle dogs, p.o.; settings: 10 mg/kg (equiv 2-PMPA), N=1, single dose
Method: (by mouth). Blood samples were collected from the jugular vein (˜1 mL) via direct venipuncture, placed into potassium oxalate with sodium fluoride tubes, and maintained on wet ice until processed. Blood samples were centrifuged at a temperature of 4° C., at 3000×g, for 5 minutes. Blood samples were maintained chilled throughout processing. Plasma was collected in tubes and flash frozen. Samples were stored in a freezer set to maintain −60° C. to −80 OC until further analysis. […] The tissues were stored in −20° C. for 1 h and then homogenized. The calibration curve for the tissues was developed using naïve mouse brains from untreated animals as a matrix. For sciatic nerve, the nerves were weighed and homogenized in 50 μL methanol and the calibration curve was developed using naïve sciatic nerves from untreated animals as a matrix. The samples were vortexed and centrifuged. […] Supernatant was dried under a gentle stream of nitrogen at 45° C. and the residue reconstituted with 75 μL of acetonitrile and vortexed. 25 μL of derivatizing agent N-tert-Butyldimethysilyl-N-methyltrifluoro-acetamide (MTBSTFA) was added to microcentrifuge tubes, vortexed, and heated at ˜60 OC for 40 min. At the end of 40 min, the derivatized samples ˜75 μL were transferred to a 250 μL polypropylene vials and were analyzed via LC/MS/MS. […]

With `CC(C)OC(=O)OCOC(=O)C(CCC(=O)O)CP(=O)(OCOC(=O)OC(C)C)OCOC(=O)OC(C)C` (stereo not drawn) [Compound 10] the Percentage remaining ([1]; 0 min) was 100%, the Percentage remaining ([1]; 30 min, listed as TRIS-POC) was 102% and 64% and the Percentage remaining ([1]; 60 min, listed as TRIS-POC) was 77% and 48%. The “permeability in vivo” value [2] was “highest permeability”, the Percentage remaining ([3]; 0 min) was 100% and the Percentage remaining ([3]; 30 min) was 1%. For the same molecule, the Percentage remaining ([3]; 60 min) was 0%, the Percentage remaining ([4]; 0 min) was 100% and the Percentage remaining ([4]; 30 min) was 67%. For the same molecule, the Percentage remaining ([4]; 60 min) was 28%, the Percentage remaining ([5]; 0 min) was 100% and the Percentage remaining ([5]; 30 min) was 1%. For the same molecule, the Percentage remaining ([5]; 60 min) was 0%, the “in vitro metabolic stability” value [6] was “instability in plasma and liver subcellular fractions” and the “Cmax” value [7] was “high Cmax”.
